The text below walks through data of PubChem BioAssay (NCI).

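Briefly, cells in 96-well plates were exposed to five compound concentrations for 48 h, and endpoints were estimated by linear interpolation. Definition used: TGI = concentration required for complete inhibition of growth.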

The test system of one assay is BT-549 breast. As to the kind of experiment: inhibition of tumour cell growth, NCI panel, 48 h.
The next assay concerns MDA-MB-435. Nature of the assay: inhibition of tumour cell growth, NCI panel, 48 h.

For `CCn1c(=O)c2c3ccc(O)cc3[nH]c2c2ccc(O)cc21`, the TGI with BT-549 breast and in the assay on MDA-MB-435 was greater than 100 µM in each case.
